Reference: ChEMBL document CHEMBL4507296 (2021)

Legend:
[1] = target: RAF proto-oncogene serine/threonine-protein kinase (Homo sapiens) (UniProt P04049); details: Compound concentration 1000.0 nM
[2] = target: BMP-2-inducible protein kinase (Homo sapiens) (UniProt Q9NSY1); details: Compound concentration 1000.0 nM
[3] = target: Dual specificity mitogen-activated protein kinase kinase 3 (Homo sapiens) (UniProt P46734); details: Compound concentration 1000.0 nM
[4] = target: Transient receptor potential cation channel subfamily M member 6 (Homo sapiens) (UniProt Q9BX84); details: Compound concentration 1000.0 nM
[5] = target: Mitogen-activated protein kinase kinase kinase 4 (Homo sapiens) (UniProt Q9Y6R4); details: Compound concentration 1000.0 nM
[6] = target: Mitogen-activated protein kinase kinase kinase kinase 5 (Homo sapiens) (UniProt Q9Y4K4); details: Compound concentration 1000.0 nM
[7] = target: Histamine H1 receptor (Homo sapiens) (UniProt P35367); details: Compound concentration 10.0 uM
[8] = target: Tyrosine-protein kinase JAK3 (Homo sapiens) (UniProt P52333); details: Compound concentration 1000.0 nM
[9] = system: Phosphatidylinositol 4,5-bisphosphate 3-kinase catalytic subunit alpha isoform (Homo sapiens), P42336 [H1047L]; details: Compound concentration 1000.0 nM
[10] = target: Protein kinase C iota type (Homo sapiens) (UniProt P41743); details: Compound concentration 1000.0 nM
[11] = target: Sodium-dependent serotonin transporter (Homo sapiens) (UniProt P31645); details: Compound concentration 10.0 uM
[12] = target: 5-hydroxytryptamine receptor 2A (Homo sapiens) (UniProt P28223); details: Compound concentration 10.0 uM
[13] = target: Serine/threonine-protein kinase TBK1 (Homo sapiens) (UniProt Q9UHD2); details: Compound concentration 1000.0 nM
[14] = target: Vascular endothelial growth factor receptor 2 (Homo sapiens) (UniProt P35968); details: Compound concentration 1000.0 nM
[15] = target: Serine/threonine-protein kinase STK11 (Homo sapiens) (UniProt Q15831); details: Compound concentration 1000.0 nM
[16] = target: D(3) dopamine receptor (Homo sapiens) (UniProt P35462); details: Compound concentration 10.0 uM
[17] = target: Aurora kinase B (Homo sapiens) (UniProt Q96GD4); details: Compound concentration 1000.0 nM
[18] = target: Discoidin domain-containing receptor 2 (Homo sapiens) (UniProt Q16832); details: Compound concentration 1000.0 nM
[19] = target: Protein-tyrosine kinase 2-beta (Homo sapiens) (UniProt Q14289); details: Compound concentration 1000.0 nM
[20] = target: Calcium/calmodulin-dependent protein kinase kinase 1 (Homo sapiens) (UniProt Q8N5S9); details: Compound concentration 1000.0 nM
[21] = target: Serine/threonine-protein kinase pim-3 (Homo sapiens) (UniProt Q86V86); details: Compound concentration 1000.0 nM
[22] = target: Ribosomal protein S6 kinase beta-1 (Homo sapiens) (UniProt P23443); details: Compound concentration 1000.0 nM
[23] = target: Ribosomal protein S6 kinase alpha-2 (Homo sapiens) (UniProt Q15349); details: Compound concentration 1000.0 nM
[24] = target: Ribosomal protein S6 kinase alpha-4 (Homo sapiens) (UniProt O75676); details: Compound concentration 1000.0 nM
[25] = target: Casein kinase I isoform gamma-1 (Homo sapiens) (UniProt Q9HCP0); details: Compound concentration 1000.0 nM
[26] = target: Mitogen-activated protein kinase kinase kinase 7 (Homo sapiens) (UniProt O43318); details: Compound concentration 1000.0 nM
[27] = target: Cyclin-dependent kinase 13 (Homo sapiens) (UniProt Q14004); details: Compound concentration 1000.0 nM
[28] = system: Epidermal growth factor receptor (Homo sapiens), P00533 [L858R,T790M]; details: Compound concentration 1000.0 nM
[29] = target: LIM domain kinase 1 (Homo sapiens) (UniProt P53667); details: Compound concentration 1000.0 nM
[30] = target: Phosphorylase b kinase regulatory subunit alpha, liver isoform (Homo sapiens) (UniProt P46019); details: Compound concentration 1000.0 nM
[31] = target: Tyrosine-protein kinase CSK (Homo sapiens) (UniProt P41240); details: Compound concentration 1000.0 nM
[32] = target: Tyrosine-protein kinase Tec (Homo sapiens) (UniProt P42680); details: Compound concentration 1000.0 nM
[33] = target: Ephrin type-A receptor 8 (Homo sapiens) (UniProt P29322); details: Compound concentration 1000.0 nM
[34] = system: Tyrosine-protein kinase ABL1 (Homo sapiens), P00519 [M351T]; details: Compound concentration 1000.0 nM
[35] = target: Mitogen-activated protein kinase kinase kinase 20 (Homo sapiens) (UniProt Q9NYL2); details: Compound concentration 1000.0 nM
[36] = target: Membrane-associated tyrosine- and threonine-specific cdc2-inhibitory kinase (Homo sapiens) (UniProt Q99640); details: Compound concentration 1000.0 nM
[37] = target: Eukaryotic translation initiation factor 2-alpha kinase 1 (Homo sapiens) (UniProt Q9BQI3); details: Compound concentration 1000.0 nM
[38] = target: Mitogen-activated protein kinase kinase kinase 12 (Homo sapiens) (UniProt Q12852); details: Compound concentration 1000.0 nM
[39] = target: Dual specificity tyrosine-phosphorylation-regulated kinase 1B (Homo sapiens) (UniProt Q9Y463); details: Compound concentration 1000.0 nM
[40] = target: Serine/threonine-protein kinase 26 (Homo sapiens) (UniProt Q9P289); details: Compound concentration 1000.0 nM
[41] = target: Casein kinase I isoform alpha (Homo sapiens) (UniProt P48729); details: Compound concentration 1000.0 nM
[42] = target: Tyrosine-protein kinase SYK (Homo sapiens) (UniProt P43405); details: Compound concentration 1000.0 nM
[43] = target: Ephrin type-A receptor 1 (Homo sapiens) (UniProt P21709); details: Compound concentration 1000.0 nM
[44] = target: Tyrosine-protein kinase JAK1 (Homo sapiens) (UniProt P23458); details: Compound concentration 1000.0 nM
[45] = target: Beta-adrenergic receptor kinase 1 (Homo sapiens) (UniProt P25098); details: Compound concentration 1000.0 nM
Sequence of Beta-adrenergic receptor kinase 1 (Homo sapiens) (P25098 whole entry): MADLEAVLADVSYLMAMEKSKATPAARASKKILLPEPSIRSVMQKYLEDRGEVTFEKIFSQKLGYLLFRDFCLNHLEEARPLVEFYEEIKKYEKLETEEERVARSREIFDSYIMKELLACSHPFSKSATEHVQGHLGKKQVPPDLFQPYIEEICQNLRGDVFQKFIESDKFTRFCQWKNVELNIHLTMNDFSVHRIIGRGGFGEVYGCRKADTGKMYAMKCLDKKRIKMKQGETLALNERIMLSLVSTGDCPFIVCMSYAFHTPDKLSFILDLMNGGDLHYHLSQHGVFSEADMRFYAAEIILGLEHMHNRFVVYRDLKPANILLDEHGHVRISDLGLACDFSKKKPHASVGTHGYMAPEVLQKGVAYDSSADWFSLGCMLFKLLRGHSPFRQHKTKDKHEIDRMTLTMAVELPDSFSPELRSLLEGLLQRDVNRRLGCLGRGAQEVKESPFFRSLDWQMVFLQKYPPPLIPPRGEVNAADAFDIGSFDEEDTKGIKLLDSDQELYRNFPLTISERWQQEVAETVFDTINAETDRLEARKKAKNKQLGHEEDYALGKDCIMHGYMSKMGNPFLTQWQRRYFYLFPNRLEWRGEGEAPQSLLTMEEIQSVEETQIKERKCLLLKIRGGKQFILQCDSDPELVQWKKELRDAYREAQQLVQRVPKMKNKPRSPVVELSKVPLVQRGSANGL

Sequence of RAF proto-oncogene serine/threonine-protein kinase (Homo sapiens) (P04049 whole entry): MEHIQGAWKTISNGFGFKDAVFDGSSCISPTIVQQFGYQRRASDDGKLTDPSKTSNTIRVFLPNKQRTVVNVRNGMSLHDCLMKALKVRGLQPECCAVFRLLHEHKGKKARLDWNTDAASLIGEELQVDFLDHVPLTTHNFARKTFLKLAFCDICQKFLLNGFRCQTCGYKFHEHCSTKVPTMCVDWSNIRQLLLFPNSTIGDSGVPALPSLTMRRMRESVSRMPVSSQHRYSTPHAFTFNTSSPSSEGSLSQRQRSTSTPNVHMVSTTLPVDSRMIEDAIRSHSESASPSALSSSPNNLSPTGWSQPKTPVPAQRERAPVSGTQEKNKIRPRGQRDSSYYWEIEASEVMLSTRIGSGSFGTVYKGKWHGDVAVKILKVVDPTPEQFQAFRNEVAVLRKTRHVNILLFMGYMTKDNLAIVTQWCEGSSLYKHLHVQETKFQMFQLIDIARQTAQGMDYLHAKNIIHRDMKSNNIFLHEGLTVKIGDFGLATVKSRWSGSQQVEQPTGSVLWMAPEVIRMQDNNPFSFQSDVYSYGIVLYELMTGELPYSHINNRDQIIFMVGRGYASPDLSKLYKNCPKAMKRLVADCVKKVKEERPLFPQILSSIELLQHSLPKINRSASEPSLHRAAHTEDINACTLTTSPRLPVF
Sequence of Casein kinase I isoform alpha (Homo sapiens) (P48729 2-337 limits assumed): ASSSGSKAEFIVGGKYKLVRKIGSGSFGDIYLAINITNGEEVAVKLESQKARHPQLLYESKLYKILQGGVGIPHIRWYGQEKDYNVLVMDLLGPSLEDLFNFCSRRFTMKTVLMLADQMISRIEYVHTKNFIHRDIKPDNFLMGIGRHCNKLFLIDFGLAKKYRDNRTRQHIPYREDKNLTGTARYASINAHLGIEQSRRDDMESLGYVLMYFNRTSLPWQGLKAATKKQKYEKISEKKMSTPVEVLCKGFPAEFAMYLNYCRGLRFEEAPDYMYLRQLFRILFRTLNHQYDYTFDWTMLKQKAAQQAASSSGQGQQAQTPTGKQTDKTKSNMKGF
Sequence of Mitogen-activated protein kinase kinase kinase 20 (Homo sapiens) (Q9NYL2 2-800 limits assumed): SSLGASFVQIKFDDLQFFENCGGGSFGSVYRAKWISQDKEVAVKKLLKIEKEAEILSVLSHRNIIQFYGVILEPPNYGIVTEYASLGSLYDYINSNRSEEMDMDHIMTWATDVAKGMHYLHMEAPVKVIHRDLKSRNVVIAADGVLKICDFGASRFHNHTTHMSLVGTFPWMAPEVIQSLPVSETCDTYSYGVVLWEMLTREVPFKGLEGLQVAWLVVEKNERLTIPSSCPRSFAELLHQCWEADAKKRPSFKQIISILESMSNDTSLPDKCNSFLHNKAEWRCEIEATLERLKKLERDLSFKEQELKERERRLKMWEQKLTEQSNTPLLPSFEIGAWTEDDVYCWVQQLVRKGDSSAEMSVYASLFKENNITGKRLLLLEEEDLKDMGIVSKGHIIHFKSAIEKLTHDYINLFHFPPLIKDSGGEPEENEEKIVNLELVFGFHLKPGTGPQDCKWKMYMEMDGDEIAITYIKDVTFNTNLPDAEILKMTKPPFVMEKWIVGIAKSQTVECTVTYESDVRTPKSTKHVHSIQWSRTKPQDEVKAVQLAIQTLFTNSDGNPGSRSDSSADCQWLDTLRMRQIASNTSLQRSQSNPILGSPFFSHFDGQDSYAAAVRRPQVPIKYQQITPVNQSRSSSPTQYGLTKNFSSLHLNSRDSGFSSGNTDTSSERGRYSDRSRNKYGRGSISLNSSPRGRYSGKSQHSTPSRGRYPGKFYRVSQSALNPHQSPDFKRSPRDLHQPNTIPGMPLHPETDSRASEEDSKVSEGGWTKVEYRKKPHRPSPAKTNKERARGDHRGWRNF
Sequence of Ribosomal protein S6 kinase alpha-4 (Homo sapiens) (O75676 whole entry, looked up, canonical isoform): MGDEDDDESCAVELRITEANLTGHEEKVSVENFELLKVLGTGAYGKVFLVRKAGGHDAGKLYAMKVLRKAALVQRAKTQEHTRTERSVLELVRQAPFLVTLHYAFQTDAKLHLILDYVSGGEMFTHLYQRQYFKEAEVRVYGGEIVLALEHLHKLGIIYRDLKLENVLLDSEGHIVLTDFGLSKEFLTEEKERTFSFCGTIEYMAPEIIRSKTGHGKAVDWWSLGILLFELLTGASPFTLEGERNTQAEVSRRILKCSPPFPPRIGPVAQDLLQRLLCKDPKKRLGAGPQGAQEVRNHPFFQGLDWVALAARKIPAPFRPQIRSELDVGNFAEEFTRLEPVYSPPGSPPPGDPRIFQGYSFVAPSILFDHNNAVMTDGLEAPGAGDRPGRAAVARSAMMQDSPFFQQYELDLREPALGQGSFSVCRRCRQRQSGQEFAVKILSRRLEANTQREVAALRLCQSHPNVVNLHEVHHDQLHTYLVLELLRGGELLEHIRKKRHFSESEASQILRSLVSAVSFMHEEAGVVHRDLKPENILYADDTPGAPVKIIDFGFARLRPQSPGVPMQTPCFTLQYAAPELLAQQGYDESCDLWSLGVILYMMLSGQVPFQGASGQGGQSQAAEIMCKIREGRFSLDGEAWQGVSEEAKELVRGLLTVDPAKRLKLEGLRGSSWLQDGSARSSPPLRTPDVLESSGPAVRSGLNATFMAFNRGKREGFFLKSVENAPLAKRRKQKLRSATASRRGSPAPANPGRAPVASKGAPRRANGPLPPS
Sequence of Ribosomal protein S6 kinase beta-1 (Homo sapiens) (P23443 whole entry, looked up): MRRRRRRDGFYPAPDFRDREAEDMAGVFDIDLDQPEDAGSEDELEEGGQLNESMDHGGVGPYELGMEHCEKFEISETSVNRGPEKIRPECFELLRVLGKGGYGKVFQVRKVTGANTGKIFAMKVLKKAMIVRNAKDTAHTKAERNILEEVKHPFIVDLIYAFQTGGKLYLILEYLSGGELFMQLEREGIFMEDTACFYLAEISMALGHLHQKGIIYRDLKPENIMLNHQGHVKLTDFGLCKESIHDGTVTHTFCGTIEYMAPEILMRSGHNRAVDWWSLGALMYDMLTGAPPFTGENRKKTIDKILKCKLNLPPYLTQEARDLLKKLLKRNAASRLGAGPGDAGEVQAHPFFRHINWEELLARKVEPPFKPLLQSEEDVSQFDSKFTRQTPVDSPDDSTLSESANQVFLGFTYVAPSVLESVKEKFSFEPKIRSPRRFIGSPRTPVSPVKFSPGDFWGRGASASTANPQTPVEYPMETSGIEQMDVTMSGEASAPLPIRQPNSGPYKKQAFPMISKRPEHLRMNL
Sequence of Protein-tyrosine kinase 2-beta (Homo sapiens) (Q14289 whole entry, looked up): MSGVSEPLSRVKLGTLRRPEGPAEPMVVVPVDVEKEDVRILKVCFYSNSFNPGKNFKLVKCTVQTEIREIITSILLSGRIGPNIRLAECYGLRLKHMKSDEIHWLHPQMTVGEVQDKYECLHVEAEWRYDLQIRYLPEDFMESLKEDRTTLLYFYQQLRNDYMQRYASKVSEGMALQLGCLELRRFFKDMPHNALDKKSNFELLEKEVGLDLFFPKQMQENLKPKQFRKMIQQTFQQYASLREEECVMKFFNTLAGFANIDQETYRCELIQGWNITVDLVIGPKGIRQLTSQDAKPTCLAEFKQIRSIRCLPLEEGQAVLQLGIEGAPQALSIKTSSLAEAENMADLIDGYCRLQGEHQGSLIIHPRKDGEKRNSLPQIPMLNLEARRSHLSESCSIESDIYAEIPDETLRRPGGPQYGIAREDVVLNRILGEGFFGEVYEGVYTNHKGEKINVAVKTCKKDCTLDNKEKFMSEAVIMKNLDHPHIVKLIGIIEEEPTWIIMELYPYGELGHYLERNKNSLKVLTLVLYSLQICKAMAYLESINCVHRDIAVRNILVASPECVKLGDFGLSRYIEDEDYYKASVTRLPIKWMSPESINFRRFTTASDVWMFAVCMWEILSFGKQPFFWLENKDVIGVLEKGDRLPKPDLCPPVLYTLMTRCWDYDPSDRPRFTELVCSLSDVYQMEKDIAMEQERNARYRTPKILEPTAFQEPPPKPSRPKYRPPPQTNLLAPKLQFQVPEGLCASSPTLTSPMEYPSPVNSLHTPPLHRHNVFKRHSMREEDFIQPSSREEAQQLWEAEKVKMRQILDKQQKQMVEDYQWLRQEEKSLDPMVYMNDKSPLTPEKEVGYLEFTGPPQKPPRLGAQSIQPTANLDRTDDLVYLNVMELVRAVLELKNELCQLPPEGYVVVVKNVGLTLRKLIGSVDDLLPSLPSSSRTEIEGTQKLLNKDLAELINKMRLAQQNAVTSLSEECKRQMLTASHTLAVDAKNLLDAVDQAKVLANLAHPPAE

C[C@H](c1ccc(F)cc1)N(Cc1cccc(C(=O)O)c1)C(=O)c1cnc2ccccc2c1 [PF-05105679]
inactive: residual activity [1] 100% | residual activity [2] 96% | residual activity [3] 91% | residual activity [4] 100% | residual activity [5] 100% | residual activity [6] 100% | inhibition [7] 22.9% | residual activity [8] 100% | residual activity [9] 100% | residual activity [10] 100% | inhibition [11] 23.4% | inhibition [12] -0.2% | residual activity [13] 91% | residual activity [14] 100% | residual activity [15] 100% | inhibition [16] -8.16% | residual activity [17] 100% | residual activity [18] 96% | residual activity [19] 100% | residual activity [20] 100% | residual activity [21] 100% | residual activity [22] 100% | residual activity [23] 100% | residual activity [24] 85% | residual activity [25] 91% | residual activity [26] 100% | residual activity [27] 98% | residual activity [28] 96% | residual activity [29] 100% | residual activity [30] 100% | residual activity [31] 100% | residual activity [32] 80% | residual activity [33] 76% | residual activity [34] 94% | residual activity [35] 100% | residual activity [36] 68% | residual activity [37] 84% | residual activity [38] 100% | residual activity [39] 100% | residual activity [40] 79% | residual activity [41] 100% | residual activity [42] 87% | residual activity [43] 100% | residual activity [44] 100% | residual activity [45] 80%
